Results taken from ChEMBL document CHEMBL4507319 (2021).

Key:
[1] = target: T1, Serine/threonine-protein kinase Chk1 (Homo sapiens) (UniProt O14757); conditions: Compound concentration 1000.0 nM
T1 sequence (whole entry): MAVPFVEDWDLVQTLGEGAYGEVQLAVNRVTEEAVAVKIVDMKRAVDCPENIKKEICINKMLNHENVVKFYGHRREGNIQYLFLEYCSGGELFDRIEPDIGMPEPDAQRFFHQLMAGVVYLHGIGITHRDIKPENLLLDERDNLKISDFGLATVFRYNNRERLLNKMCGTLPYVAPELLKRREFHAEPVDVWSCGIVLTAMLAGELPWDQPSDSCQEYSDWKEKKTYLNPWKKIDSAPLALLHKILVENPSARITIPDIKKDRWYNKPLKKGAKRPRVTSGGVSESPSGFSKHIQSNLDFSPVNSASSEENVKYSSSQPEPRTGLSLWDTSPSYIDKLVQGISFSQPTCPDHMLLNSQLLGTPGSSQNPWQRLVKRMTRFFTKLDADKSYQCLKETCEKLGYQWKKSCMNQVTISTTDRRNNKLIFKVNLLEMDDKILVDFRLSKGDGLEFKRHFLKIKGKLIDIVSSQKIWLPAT

[2] = target: Macrophage colony-stimulating factor 1 receptor (Homo sapiens) (UniProt P07333); conditions: Compound concentration 1000.0 nM
[3] = target: Casein kinase I isoform epsilon (Homo sapiens) (UniProt P49674); conditions: Compound concentration 1000.0 nM
[4] = target: Receptor tyrosine-protein kinase erbB-2 (Homo sapiens) (UniProt P04626); conditions: Compound concentration 1000.0 nM
[5] = target: Mitogen-activated protein kinase kinase kinase kinase 1 (Homo sapiens) (UniProt Q92918); conditions: Compound concentration 1000.0 nM
[6] = target: Insulin-like growth factor 1 receptor (Homo sapiens) (UniProt P08069); conditions: Compound concentration 1000.0 nM
[7] = target: T2, Tyrosine-protein kinase JAK3 (Homo sapiens) (UniProt P52333); conditions: Compound concentration 1000.0 nM
T2 sequence (whole entry): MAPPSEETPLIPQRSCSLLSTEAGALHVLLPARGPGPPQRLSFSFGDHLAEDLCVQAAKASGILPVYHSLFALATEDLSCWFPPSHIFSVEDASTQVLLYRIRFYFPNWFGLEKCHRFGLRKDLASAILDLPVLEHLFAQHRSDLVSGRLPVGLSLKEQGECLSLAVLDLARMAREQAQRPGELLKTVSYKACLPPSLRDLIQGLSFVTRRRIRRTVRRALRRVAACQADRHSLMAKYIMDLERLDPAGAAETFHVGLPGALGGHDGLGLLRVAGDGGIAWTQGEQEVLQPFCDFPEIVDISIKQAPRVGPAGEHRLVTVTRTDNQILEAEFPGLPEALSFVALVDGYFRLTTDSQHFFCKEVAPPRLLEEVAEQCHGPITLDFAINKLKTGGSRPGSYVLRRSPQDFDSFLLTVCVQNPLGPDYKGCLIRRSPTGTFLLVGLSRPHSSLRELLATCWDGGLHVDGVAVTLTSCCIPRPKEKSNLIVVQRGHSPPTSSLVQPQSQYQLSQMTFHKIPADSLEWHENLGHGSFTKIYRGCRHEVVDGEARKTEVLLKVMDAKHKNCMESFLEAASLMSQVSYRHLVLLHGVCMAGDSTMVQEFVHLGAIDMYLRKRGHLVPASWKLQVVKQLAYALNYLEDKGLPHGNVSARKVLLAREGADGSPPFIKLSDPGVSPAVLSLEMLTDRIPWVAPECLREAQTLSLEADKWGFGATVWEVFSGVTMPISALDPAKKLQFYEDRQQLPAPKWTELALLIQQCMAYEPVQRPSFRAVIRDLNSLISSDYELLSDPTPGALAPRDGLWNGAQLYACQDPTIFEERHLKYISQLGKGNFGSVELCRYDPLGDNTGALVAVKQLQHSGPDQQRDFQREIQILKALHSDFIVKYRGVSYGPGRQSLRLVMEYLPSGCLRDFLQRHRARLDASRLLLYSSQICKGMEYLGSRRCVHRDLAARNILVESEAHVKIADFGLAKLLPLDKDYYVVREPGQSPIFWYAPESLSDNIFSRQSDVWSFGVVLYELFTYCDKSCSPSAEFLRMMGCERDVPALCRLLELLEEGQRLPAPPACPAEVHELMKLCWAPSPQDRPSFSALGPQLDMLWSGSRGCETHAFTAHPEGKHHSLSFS

[8] = tested on: Mast/stem cell growth factor receptor Kit (Homo sapiens), P10721 [L576P]; conditions: Compound concentration 1000.0 nM
[9] = target: Dual specificity mitogen-activated protein kinase kinase 3 (Homo sapiens) (UniProt P46734); conditions: Compound concentration 1000.0 nM
[10] = target: Dual specificity mitogen-activated protein kinase kinase 5 (Homo sapiens) (UniProt Q13163); conditions: Compound concentration 1000.0 nM
[11] = target: Serine/threonine-protein kinase 24 (Homo sapiens, UniProt Q9Y6E0); conditions: Compound concentration 1000.0 nM
[12] = target: Serine/threonine-protein kinase 38 (Homo sapiens) (UniProt Q15208); conditions: Compound concentration 1000.0 nM
[13] = target: Interferon-induced, double-stranded RNA-activated protein kinase (Homo sapiens) (UniProt P19525); conditions: Compound concentration 1000.0 nM
[14] = tested on: Proto-oncogene tyrosine-protein kinase receptor Ret (Homo sapiens), P07949 [M918T]; conditions: Compound concentration 1000.0 nM
[15] = target: Dual specificity testis-specific protein kinase 1 (Homo sapiens) (UniProt Q15569); conditions: Compound concentration 1000.0 nM
[16] = target: 5-hydroxytryptamine receptor 1E (Homo sapiens) (UniProt P28566); conditions: Compound concentration 10.0 uM
Chain of 5-hydroxytryptamine receptor 1E (Homo sapiens) (P28566 whole entry): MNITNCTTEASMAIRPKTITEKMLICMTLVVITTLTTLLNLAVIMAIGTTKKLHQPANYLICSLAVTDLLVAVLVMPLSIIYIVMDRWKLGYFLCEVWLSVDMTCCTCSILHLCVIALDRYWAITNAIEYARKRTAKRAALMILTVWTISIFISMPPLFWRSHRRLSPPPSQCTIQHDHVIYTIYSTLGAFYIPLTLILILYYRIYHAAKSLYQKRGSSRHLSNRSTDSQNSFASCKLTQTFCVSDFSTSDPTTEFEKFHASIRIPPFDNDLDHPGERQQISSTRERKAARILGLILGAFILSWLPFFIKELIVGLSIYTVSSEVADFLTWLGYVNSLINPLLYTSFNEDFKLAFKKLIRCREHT

Chain of Casein kinase I isoform epsilon (Homo sapiens) (P49674 whole entry, looked up, canonical isoform): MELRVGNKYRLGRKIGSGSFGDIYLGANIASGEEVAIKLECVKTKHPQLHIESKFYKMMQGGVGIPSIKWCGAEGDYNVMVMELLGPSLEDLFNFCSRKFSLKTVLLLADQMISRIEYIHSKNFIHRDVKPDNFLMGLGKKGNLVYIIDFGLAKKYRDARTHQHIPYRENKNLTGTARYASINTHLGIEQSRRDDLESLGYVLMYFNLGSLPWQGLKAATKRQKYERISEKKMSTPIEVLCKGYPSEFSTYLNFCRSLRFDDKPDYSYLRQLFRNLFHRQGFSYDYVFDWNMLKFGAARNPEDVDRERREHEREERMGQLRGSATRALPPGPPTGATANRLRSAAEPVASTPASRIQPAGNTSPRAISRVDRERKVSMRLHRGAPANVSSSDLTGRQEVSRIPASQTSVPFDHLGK
Chain of Insulin-like growth factor 1 receptor (Homo sapiens) (P08069 31-736 limits assumed): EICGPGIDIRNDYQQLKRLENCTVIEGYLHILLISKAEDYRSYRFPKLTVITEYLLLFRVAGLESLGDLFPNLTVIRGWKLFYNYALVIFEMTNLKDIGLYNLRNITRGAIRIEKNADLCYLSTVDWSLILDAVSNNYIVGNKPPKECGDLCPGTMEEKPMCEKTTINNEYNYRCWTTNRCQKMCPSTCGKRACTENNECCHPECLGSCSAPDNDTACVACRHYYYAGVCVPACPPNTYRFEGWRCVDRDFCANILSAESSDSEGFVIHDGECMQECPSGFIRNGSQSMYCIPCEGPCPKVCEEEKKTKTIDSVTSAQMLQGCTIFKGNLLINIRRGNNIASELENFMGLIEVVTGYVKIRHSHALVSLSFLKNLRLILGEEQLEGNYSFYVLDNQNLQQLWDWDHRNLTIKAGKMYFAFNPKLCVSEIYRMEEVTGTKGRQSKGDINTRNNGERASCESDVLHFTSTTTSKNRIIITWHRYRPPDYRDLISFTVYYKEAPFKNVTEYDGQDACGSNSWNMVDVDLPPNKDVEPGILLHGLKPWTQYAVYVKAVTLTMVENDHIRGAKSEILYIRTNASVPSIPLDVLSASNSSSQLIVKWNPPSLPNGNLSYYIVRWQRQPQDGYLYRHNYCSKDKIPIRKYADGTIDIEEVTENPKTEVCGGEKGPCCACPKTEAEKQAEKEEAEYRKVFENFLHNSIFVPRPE
Chain of Insulin-like growth factor 1 receptor (Homo sapiens) (P08069 741-1367 limits assumed): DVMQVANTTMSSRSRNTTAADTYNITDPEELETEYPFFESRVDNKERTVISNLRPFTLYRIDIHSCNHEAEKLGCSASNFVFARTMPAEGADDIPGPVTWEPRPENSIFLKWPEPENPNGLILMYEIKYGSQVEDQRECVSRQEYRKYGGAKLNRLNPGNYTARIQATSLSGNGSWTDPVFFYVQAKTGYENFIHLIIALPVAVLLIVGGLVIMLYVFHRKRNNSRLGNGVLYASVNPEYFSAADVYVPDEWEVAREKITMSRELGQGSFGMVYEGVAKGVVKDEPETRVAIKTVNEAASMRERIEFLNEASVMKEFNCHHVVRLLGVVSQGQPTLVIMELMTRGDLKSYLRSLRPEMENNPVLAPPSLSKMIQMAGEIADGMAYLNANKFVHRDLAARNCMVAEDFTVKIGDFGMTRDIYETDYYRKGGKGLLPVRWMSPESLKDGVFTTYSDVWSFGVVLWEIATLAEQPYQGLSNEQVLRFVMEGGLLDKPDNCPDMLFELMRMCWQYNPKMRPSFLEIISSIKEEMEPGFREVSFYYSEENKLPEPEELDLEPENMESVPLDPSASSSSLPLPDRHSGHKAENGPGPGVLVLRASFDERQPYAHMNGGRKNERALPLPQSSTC
Chain of Macrophage colony-stimulating factor 1 receptor (Homo sapiens) (P07333 whole entry, canonical isoform): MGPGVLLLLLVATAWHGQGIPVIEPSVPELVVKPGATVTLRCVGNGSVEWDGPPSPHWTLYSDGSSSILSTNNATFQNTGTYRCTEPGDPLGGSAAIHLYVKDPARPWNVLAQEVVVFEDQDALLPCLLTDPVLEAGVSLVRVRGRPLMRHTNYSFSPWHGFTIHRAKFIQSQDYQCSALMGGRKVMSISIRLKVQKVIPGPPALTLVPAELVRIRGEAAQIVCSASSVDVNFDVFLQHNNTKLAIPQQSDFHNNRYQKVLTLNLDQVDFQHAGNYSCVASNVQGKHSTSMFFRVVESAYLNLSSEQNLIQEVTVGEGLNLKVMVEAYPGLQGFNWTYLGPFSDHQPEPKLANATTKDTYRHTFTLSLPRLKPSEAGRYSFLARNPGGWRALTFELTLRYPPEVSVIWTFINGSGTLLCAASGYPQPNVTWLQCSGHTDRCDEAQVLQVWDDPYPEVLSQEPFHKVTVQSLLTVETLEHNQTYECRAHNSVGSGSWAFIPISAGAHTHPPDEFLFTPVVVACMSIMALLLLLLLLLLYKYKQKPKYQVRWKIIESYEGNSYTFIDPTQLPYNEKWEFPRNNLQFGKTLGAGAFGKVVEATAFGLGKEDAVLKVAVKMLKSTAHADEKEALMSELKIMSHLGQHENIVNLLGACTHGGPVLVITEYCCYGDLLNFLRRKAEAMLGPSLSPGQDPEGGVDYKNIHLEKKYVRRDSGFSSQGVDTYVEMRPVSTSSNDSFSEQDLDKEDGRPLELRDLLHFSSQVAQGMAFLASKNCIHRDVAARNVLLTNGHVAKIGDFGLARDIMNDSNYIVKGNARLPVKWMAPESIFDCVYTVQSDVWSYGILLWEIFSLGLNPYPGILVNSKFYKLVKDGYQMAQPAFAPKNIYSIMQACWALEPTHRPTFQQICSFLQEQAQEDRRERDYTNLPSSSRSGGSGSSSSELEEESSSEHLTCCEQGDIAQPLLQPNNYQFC
Chain of Dual specificity testis-specific protein kinase 1 (Homo sapiens) (Q15569 whole entry, looked up): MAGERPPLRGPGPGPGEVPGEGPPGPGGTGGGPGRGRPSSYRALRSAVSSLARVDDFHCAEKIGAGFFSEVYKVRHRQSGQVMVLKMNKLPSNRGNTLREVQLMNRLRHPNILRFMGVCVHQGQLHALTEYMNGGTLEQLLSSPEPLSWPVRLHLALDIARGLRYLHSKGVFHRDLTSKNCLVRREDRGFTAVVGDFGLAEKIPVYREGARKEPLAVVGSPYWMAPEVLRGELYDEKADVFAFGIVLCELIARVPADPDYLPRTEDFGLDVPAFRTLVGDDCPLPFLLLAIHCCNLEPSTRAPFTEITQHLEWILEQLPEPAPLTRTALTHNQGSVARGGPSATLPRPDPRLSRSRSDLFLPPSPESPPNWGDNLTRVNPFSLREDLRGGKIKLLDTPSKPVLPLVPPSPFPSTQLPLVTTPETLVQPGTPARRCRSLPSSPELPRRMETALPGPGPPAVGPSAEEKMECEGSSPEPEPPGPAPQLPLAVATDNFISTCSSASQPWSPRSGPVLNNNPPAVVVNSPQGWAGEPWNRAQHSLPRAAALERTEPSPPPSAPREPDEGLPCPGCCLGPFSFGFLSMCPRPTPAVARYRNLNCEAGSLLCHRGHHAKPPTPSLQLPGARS
Chain of Mast/stem cell growth factor receptor Kit (Homo sapiens), P10721 [L576P] (P10721 whole entry L576P): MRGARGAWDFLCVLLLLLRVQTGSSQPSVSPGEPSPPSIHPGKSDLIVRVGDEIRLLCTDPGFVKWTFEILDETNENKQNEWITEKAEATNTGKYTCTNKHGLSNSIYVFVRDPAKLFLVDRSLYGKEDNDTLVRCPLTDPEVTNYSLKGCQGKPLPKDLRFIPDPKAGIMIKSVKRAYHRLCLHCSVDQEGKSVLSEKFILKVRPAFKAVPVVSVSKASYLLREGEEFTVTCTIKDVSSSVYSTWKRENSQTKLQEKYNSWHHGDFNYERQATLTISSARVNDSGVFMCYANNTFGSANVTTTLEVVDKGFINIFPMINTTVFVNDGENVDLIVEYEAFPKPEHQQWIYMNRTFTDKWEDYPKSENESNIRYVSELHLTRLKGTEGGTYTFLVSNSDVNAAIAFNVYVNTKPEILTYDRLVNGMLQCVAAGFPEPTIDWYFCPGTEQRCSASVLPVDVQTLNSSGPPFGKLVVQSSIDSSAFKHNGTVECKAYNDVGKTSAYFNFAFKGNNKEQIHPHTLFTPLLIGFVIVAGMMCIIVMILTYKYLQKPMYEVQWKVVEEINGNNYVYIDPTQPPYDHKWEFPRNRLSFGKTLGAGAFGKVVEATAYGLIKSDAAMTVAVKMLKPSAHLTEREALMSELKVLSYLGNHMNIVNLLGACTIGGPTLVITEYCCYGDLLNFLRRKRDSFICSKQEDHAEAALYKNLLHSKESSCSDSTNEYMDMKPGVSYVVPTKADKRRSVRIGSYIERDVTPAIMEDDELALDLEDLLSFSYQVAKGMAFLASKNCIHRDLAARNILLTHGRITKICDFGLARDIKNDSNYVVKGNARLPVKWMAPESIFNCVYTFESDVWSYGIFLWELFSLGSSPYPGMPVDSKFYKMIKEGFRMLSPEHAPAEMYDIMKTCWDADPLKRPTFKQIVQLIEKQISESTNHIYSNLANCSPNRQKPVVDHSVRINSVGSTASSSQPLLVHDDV
Chain of Dual specificity mitogen-activated protein kinase kinase 3 (Homo sapiens) (P46734 whole entry): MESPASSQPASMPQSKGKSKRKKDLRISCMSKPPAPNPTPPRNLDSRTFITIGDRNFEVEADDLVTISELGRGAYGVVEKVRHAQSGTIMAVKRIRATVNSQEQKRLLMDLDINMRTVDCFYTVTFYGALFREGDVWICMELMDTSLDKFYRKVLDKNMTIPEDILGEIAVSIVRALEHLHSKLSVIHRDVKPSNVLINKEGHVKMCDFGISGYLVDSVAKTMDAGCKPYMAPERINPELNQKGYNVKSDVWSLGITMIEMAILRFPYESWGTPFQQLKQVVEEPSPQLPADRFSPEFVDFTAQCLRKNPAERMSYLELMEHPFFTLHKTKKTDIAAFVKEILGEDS

CC1=C(C#N)C(c2ccc3c(c2)c(NC(=O)c2ccccc2C)nn3C)C(C#N)=C(C)N1 [BAY-974]
inactive: residual activity [1] 81% | residual activity [2] 99% | residual activity [3] 100% | residual activity [4] 86% | residual activity [5] 81% | residual activity [6] 96% | residual activity [7] 83% | residual activity [8] 100% | residual activity [9] 91% | residual activity [10] 79% | residual activity [11] 100% | residual activity [12] 96% | residual activity [13] 100% | residual activity [14] 100% | residual activity [15] 96% | inhibition [16] 11.4%

CCc1ccccc1C(=O)Nc1n[nH]c2c(C)c(F)c(C3C(C#N)=C(C)N(C)C(C)=C3C#N)cc12 [BAY-3827]
inactive: residual activity [1] 91% | residual activity [2] 100% | residual activity [3] 100% | residual activity [4] 71% | residual activity [5] 73% | residual activity [6] 87% | residual activity [7] 79% | residual activity [8] 91% | residual activity [9] 97% | residual activity [10] 100% | residual activity [11] 90% | residual activity [12] 100% | residual activity [13] 100% | residual activity [14] 64% | residual activity [15] 96% | inhibition [16] 2.66%
